Experimental findings from patent publication US9938270B2, “Mono-phosphate salt of 6-fluoro-2-[4-(pyridin-2-yl)but-3-yn-1-yl]imidazo[1,2A]pyridine (dipraglurant) and polymorphs thereof as negative allosteric modulator of MGLU5 receptor” (Addex Pharma S.A., priority 2013, dated 2018) are described below.

This series is described as follows: aqueous solubility. The format is physicochemical. Particulars: aqueous medium, aqueous buffer; at all relevant physiological pH.

Usually solubility stands for how much of the substance goes into solution per volume. Higher therefore signals much dissolved substance.

Structures are written as SMILES. In brackets after ≈: the same amount, converted by molar mass.

The molecule `Fc1ccc2nc(CCC#Cc3ccccn3)cn2c1` [free base, 6-Fluoro-2-[4-(pyridin-2-yl)but-3-yn-1-yl]imidazo[1,2-a]pyridine] had a solubility of 0.5 mg/mL (≈ 1880 µM).
The value for `Fc1ccc2nc(CCC#Cc3ccccn3)cn2c1.O=P(O)(O)O` [mono-phosphate salt, 6-fluoro-2-[4-(pyridin-2-yl)but-3-yn-1-yl]imidazo[1,2-a]pyridine mono-phosphate salt] was 21 to 32.5 mg/mL.
